Source: patent publication US20230234943A1, “TREX1 INHIBITORS AND USES THEREOF” (Tempest Therapeutics, Inc., priority 2020, published 2023)

Each compound was assayed against T1, Human TREX1 enzyme (amino acids 1-242) (Homo sapiens, UniProt Q9NSU2) (assay: Human TREX1 enzymatic assay with dsDNA native oligonucleotide (Picogreen fluorescence)). Details: 2 mM dithiothreitol in assay buffer; 50 nM dsDNA oligonucleotide; 30 min preincubation at 25° C.; read-out: TREX1/Human + DTT IC50 AVG.
T1 construct: Human TREX1 enzyme (amino acids 1-242)
T1 sequence (Q9NSU2 1-242): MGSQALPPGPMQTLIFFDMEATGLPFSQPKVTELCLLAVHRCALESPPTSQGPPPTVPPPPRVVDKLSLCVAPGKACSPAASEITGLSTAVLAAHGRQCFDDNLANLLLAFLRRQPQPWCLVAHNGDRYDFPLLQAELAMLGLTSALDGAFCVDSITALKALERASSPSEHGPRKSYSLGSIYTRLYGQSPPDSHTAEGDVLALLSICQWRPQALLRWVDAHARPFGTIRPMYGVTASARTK
Assay type: biochemical
Method in brief: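 Remaining dsDNA quantified by Picogreen fluorescence after EDTA quench, with no-enzyme and DMSO wells as controls. Reactions used 50 nM annealed oligonucleotide for 5–15 min at 25 °C, after a 30 min compound–enzyme preincubation (0.8–0.16 nM TREX1; 2% DMSO; pH 7.7 Tris, 5 mM MgCl2).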

`O=C(O)c1ccc(-c2nc3ccccc3n2C2COC2)c(F)c1O` [Example 141, 3-fluoro-2-hydroxy-4-(1-(oxetan-3-yl)-1H-benzo[d]imidazol-2-yl)benzoic acid] and `O=C(O)c1ccc(-c2nc3ccncc3[nH]2)c(F)c1O` [Example 147, 3-fluoro-2-hydroxy-4-(3H-imidazo[4,5-c]pyridin-2-yl)benzoic acid] cannot be ordered by IC50: greater than 100 µM for the first, greater than 100 µM for the second.

`COc1cc(-c2nc3cc(N4CC5(CNC5)C4)ccc3[nH]2)cc(O)c1O` [Example 142, 5-(5-(2,6-diazaspiro[3.3]heptan-2-yl)-1H-benzo[d]imidazol-2-yl)-3-methoxybenzene-1,2-diol] and `COc1cc(-c2nc3cc(N4CC5(CN(C)C5)C4)ccc3[nH]2)cc(O)c1O` [Example 152, 3-methoxy-5-(5-(6-methyl-2,6-diazaspiro[3.3]heptan-2-yl)-1H-benzo[d]imidazol-2-yl)benzene-1,2-diol] cannot be ordered by IC50: greater than 100 µM for the first, greater than 100 µM for the second.

`COc1cc(-c2nc3cc(N4CC(C)C4)ccc3[nH]2)cc(O)c1O` [Example 143, 3-methoxy-5-(5-(3-methylazetidin-1-yl)-1H-benzo[d]imidazol-2-yl)benzene-1,2-diol] and `COc1cc(-c2nc3cc(N4CC(F)C4)ccc3[nH]2)cc(O)c1O` [Example 145, 5-(5-(3-fluoroazetidin-1-yl)-1H-benzo[d]imidazol-2-yl)-3-methoxybenzene-1,2-diol] cannot be ordered by IC50: greater than 100 µM for the first, greater than 100 µM for the second.

First: COc1cc(-c2nc3cc(N4CC(OC)C4)ccc3[nH]2)cc(O)c1O [Example 144, 3-methoxy-5-(5-(3-methoxyazetidin-1-yl)-1H-benzo[d]imidazol-2-yl)benzene-1,2-diol]
Second: COc1cc(-c2nc3cc(N4CC(NS(C)(=O)=O)C4)ccc3[nH]2)cc(O)c1O [Example 146, N-(1-(2-(3,4-dihydroxy-5-methoxyphenyl)-1H-benzo[d]imidazol-5-yl)azetidin-3-yl)methanesulfonamide]
The IC50 of the first is higher: 10 to 100 µM for the first, 1 to 10 µM for the second. The second is the more potent here.

First: COc1cc(-c2nc3ccccc3n2C2CCCC2)c(C)c(O)c1O [Example 148, 4-(1-cyclopentyl-1H-benzo[d]imidazol-2-yl)-6-methoxy-3-methylbenzene-1,2-diol]
Second: COc1cc(-c2nc3ccccc3n2C2CCOCC2)c(C)c(O)c1O [Example 149, 6-methoxy-3-methyl-4-(1-(tetrahydro-2H-pyran-4-yl)-1H-benzo[d]imidazol-2-yl)benzene-1,2-diol]
The IC50 of the first is lower: 1 to 10 µM for the first, 10 to 100 µM for the second. The first is the more potent here.

Compared with `O=C(O)c1cc(F)c(-c2nc3cc(N4CCC4)ccc3[nH]2)cc1O` [Example 150, 4-(5-(azetidin-1-yl)-1H-benzo[d]imidazol-2-yl)-5-fluoro-2-hydroxybenzoic acid], `COc1cc(-c2nc3cc(N4CCOCC4)ccc3[nH]2)cc(C(=O)O)c1O` [Example 151, 2-hydroxy-3-methoxy-5-(5-morpholino-1H-benzo[d]imidazol-2-yl)benzoic acid] is higher in IC50: 1 to 10 µM for the first, 10 to 100 µM for the second.

First: COc1cc(-c2nc3cc(N4CC5(C4)CN(C(C)C)C5)ccc3[nH]2)cc(O)c1O [Example 153, 5-(5-(6-isopropyl-2,6-diazaspiro[3.3]heptan-2-yl)-1H-benzo[d]imidazol-2-yl)-3-methoxybenzene-1,2-diol]
Second: COc1cc(-c2nc3cc(N4CCN(C(=O)c5cccc(C)c5)CC4)ccc3[nH]2)cc(O)c1O [Example 154, (4-(2-(3,4-dihydroxy-5-methoxyphenyl)-1H-benzo[d]imidazol-5-yl)piperazin-1-yl)(m-tolyl)methanone]
The IC50 of the first is higher: 10 to 100 µM for the first, 1 to 10 µM for the second. The second is the more potent here.

`COc1cc(-c2nc3cc(N4CCN(C(=O)c5ccccc5C(=O)O)CC4)ccc3[nH]2)cc(O)c1O` [Example 155, 2-(4-(2-(3,4-dihydroxy-5-methoxyphenyl)-1H-benzo[d]imidazol-5-yl)piperazine-1-carbonyl)benzoic acid] and `COc1cc(-c2nc3cc(N4CCOCC4)ccc3s2)cc(O)c1O` [Example 156, 3-methoxy-5-(5-morpholinobenzo[d]thiazol-2-yl)benzene-1,2-diol] fall in the same range of IC50: 10 to 100 µM for the first, 10 to 100 µM for the second.
